Experimental data reported in patent publication US10231985B2, “Compounds and compositions comprising such compounds for the prevention or treatment of dyslipidaemias” (CENTRE NATIONAL DE LA RECHERCHE SCIENTIFIQUE, priority 2013, dated 2019).

Columns and labels:
[1] = tested on: hem1Δ yeasts grown under SFA accumulation conditions; assay: Restoration of growth of lipointoxicated hem1Δ yeast; assay type: cell-based, Saccharomyces cerevisiae; details: after 3 days, increasing concentrations
Experimental: The strain bearing the hem1Δ mutation is grown, under aerobic conditions, with shaking and at 28° C., in liquid YPG^A medium (YPG (1% yeast extract (w/v), 1% peptone (w/v) and 2% glucose (w/v)) supplemented with 80 μg/ml 6-aminolevulinic acid (ALA)). Lipointoxication by saturated fatty acids (SFA) is caused by depletion of unsaturated fatty acids (UFA), the synthesis of which is dependent on the presence of heme (the prosthetic group of the Ole1p enzyme in particular), by transfer to YPG^+ medium (YPG supplemented with 80 μg/ml ergosterol to compensate for the sterol depletion obtained under this condition). Lipointoxication can be induced on solid YPG^+ medium+2% agar (w/v) by transferring 3500 cells (hem1Δ from preculture in YPG^A) per cm^2 or, alternatively, in liquid medium by inoculating 2×10^6 cells/ml YPG^+. Classically, the effects of SFA lipointoxication are analyzed 7 hours after the transfer to YPG^+ medium. The ability of a compound to counter the deleterious effects of SFA lipointoxication, in turn, is evaluated successively to the addition of this compound on (or in) the YPG^+ transfer medium, after seeding with the cells.
Following the induction of SFA lipointoxication (for hem1Δ grown on solid medium) 5 μl drops of solutions of the various compounds at 10 mM in dimethylsulfoxide (DMSO) or ethanol (EtOH) are deposited on the surface of the agar. The ability of a compound to counter the arrest of lipid-induced cell growth is estimated by the appearance of a halo of hem1Δ colonies at the site of the deposition of said compound after 3 days of culture at 28° C. (see Deguil et al., 2011).
Jointly with the induction of SFA lipointoxication (for hem1Δ in liquid medium), the various compounds are added to the cultures at an initial concentration of 200 μM. Proliferation is monitored by spectrometric measurement of cell density, at regular time intervals (every hour over the duration of the observation). At a wavelength of 600 nm, one optical density unit (OD600 nm) corresponds to 2×10^7 cells/ml.

[2] = tested on: QM strain (cells not synthesizing triglycerides); assay: Toxicity test on QM strain (growth inhibition halos); assay type: cell-based, Saccharomyces cerevisiae; details: 5 μl drops on agar, after three days
Experimental: Drops (5 μl) of OAG, LPA or oleic acid were deposited, from stock solutions at the indicated concentrations, on the surface of an agar medium over which the QM strain had been spread beforehand. […] These halos are, however, not observed in the presence of LPA or of OAG.
In parallel, wild-type (WT) and quadruple mutant (QM) strains are grown, under aerobic conditions, with shaking and at 28° C., in liquid YPG medium before seeding 3500 cells per cm^2 of YPG+2% agar (w/v). Following this transfer to solid medium, 1 μl drops of 1, 10 and 100 mM solutions of the various compounds in DMSO or EtOH are deposited on the agar surface. Separately, DMSO and EtOH are also deposited in order to evaluate the intrinsic toxicity of these two solvents. After 3 days of culture at 28° C., the toxicity of the compounds tested is evaluated by comparing the growth inhibition halo diameters obtained for the depositions of pure solvent with those of the depositions of the various concentrations of the compounds tested. Unlike the WT strain, the QM strain is incapable of buffering excess exogenous oleic acid in the form of neutral lipids (triglycerides (TG) or esterified sterols (ES)) in lipid droplets.

[3] = tested on: BRIN-BD11 pancreatic β-cells; assay: Cell viability of palmitic acid-lipointoxicated pancreatic β-cells (propidium iodide, flow cytometry); assay type: cell-based, rat; details: BRIN-BD11, 200 μM palmitic acid
Experimental: Pancreatic β-cells, BRIN-BD11, were grown under control conditions or in the presence of an exogenous source of saturated fatty acid (200 μM palmitic acid), as described by Dhayal & Morgan (2011), in order to generate lipointoxication conditions, with or without the addition of OAG. A) The proportion of dead cells was estimated in the absence (control) or presence of palmitic acid, for increasing concentrations of OAG. B) eIF2α phosphorylation levels were also analyzed under the various conditions by Western blot, in the presence or absence (Ø) of OAG, and were normalized to total eIF2α.
The lipid species are prepared in ethanol before being complexed with bovine serum albumin (BSA, first depleted of fatty acids) by incubation for 1 hour at 37° C. The palmitic acid stock solution is obtained by adding one volume of ethanol before the whole is heated to 70° C. for homogenization. OAG and LPA solutions are prepared in 100% ethanol at room temperature. For the incubations of mammalian cells, the final BSA and ethanol concentrations in the culture medium are kept at 1% and 0.5% (w/v), respectively.
The rat pancreatic β-cell line (BRIN-BD11) is grown in complete RPMI-1640 medium, containing 11 mM glucose and supplemented with 10% (v/v) fetal calf serum (FCS), 2 mM L-glutamine, 100 U/ml penicillin and 100 μg/ml streptomycin. For each experiment, the cells are first seeded at a density of 0.5×10^5 cells/ml in 6-well plates for 24 hours. Thereafter, the complete medium is replaced by an equivalent lacking FCS but containing the lipid reagents of interest, at the desired concentrations, complexed with BSA. Under the control conditions, identical amounts of BSA and ethanol are then used. […] After incubation on ice for 10 minutes, the samples thus obtained are analyzed by flow cytometry. A Beckman Coulter EPICS XL MCL is used for the quantification, an FL3 channel is used to detect the emissions of the PI intercalated in the DNA, and the analysis is carried out using the EXPO32 ADC software (Applied Cytometry Systems, V 1.1 build 207).

lipase = assay: Resistance to hydrolytic activity of lipases (thin-layer chromatography); assay type: in vitro ADME; details: 10 U of lipase, 30 minutes, 37° C.
Experimental: OAG (15 μmol) and N,N-diethanololeamide were subjected (+) or not (−) to exposure to 10 U of lipase for 30 minutes at 37° C. Following the incubation, the lipid species were extracted from the samples before being separated by thin-layer chromatography.

[4] = tested on: phospholipids of the cellular membranes (hem1Δ strain); assay: Fatty acid content of cellular phospholipids (lipid extraction, ESI-MS); assay type: cell-based, Saccharomyces cerevisiae
Experimental: The hem1Δ strain is grown in liquid medium (YPG^A, YPG^+, or YPG^++200 μM compound to be tested) under aerobic conditions, with shaking and at 28° C. for 7 hours, from an initial cell concentration of 2×10^6 cells/ml. At the conclusion of the culture, 10^8 cells are collected in order to carry out a total lipid extraction. After having suspended the cells in 1 ml of distilled water at 4° C., 500 μl of glass beads (Ø 0.6 mm) are added and the whole then undergoes 3 sequences of 20 seconds at 5000 rpm in a shaker (the tubes are kept on ice between each of the 3 sequences). The cell lysate then obtained, supplemented with bead-washing solution (1 ml), is then transferred to a 40 ml glass tube (Corex™) before carrying out the lipid extraction using a 2:1 (v/v) methanol:chloroform ratio. First, 6 ml of methanol is added and the whole is vortexed for 30 seconds and then incubated for 15 minutes at 65° C. Once the mixture cools to room temperature, 3 ml of chloroform is added and then the whole is vortexed again for 30 seconds before allowing the extraction to proceed for 16 hours. Later, the sample is centrifuged for 12 minutes at 10000 g before transferring the supernatant to a new Corex™ tube. After adding 2 ml of chloroform and then 4 ml of distilled water, the whole is vortexed for 30 seconds and then centrifuged for 8 minutes at 3000 g. After removing the resulting upper phase, the lower organic phase is collected in a glass hemolysis tube. Finally, the solvent is evaporated under a stream of nitrogen at 80° C. in order to obtain the total cellular lipid samples.
The total cellular lipid samples are resuspended in 1 ml of dichloromethane while being vortexed for 30 seconds. The whole is deposited on a silica column (BOND ELUT-SI, 100 mg 1 ml) preconditioned successively with 3 ml of methanol and then 2 ml of dichloromethane. The fraction retained by the column is then washed successively with 2 ml of dichloromethane and then 3 ml of acetone. Finally, 2 ml of a 50:45:5 (v/v/v) chloroform/methanol/water mixture is deposited on the column and the phospholipids thus eluted are collected in a glass hemolysis tube. The solvent is evaporated under nitrogen at 80° C. in order to obtain the cellular phospholipid samples.
Once resuspended in 100 μl of the mixture Mix^− (2:1:1 (v/v/v) isopropanol/acetonitrile/water+1% (v/v) triethylamine) or the mixture Mix^+ (2:1:1 (v/v/v) isopropanol/acetonitrile/water+1% (v/v) formic acid), the samples are analyzed by electrospray ionization mass spectrometry (ESI-MS) in negative or positive mode, respectively, and the results obtained are used to analyze the fatty acid content of the various phospholipid species.

Structure (SMILES) | Restoration of the growth of hem1Δ yeasts [1] | Growth inhibition halos on QM strain [2] | Apoptosis / proportion of dead cells of pancreatic β-cells [3] | Hydrolysis by lipases (lipase) | Effect on fatty acid composition of membrane phospholipids [4]
CCCCCCCC/C=C\CCCCCCCC(=O)O [oleic acid, reference compound] | restore the growth | growth inhibition halos (absence of colonies) can be observed |  |  | 
CCCCCCCC/C=C\CCCCCCCC(=O)N(CCO)CCO [N,N-diethanololeamide] |  |  | prevent apoptosis | resists hydrolysis by lipases | without restoring a normal diunsaturated phospholipid composition
CCCCCCCC/C=C\CCCCCCCC(=O)OCC(CO)(CO)CO [3-hydroxy-2,2-bis(hydroxymethyl)propyl oleate] |  |  | prevent apoptosis |  | without restoring a normal diunsaturated phospholipid composition
